Patent publication US5081284A, “Proteinase inhibitor” (Suntory Limited, priority 1989, dated 1992)
Read-outs that look alike come from different tables or passages of the source.

What was measured:
papain = molecular target: T1, papain (Carica papaya, UniProt P00784); assay: Anti-papain activity (casein hydrolysis, Lowry-Folin method); type: biochemical
T1 sequence (P00784 134-345): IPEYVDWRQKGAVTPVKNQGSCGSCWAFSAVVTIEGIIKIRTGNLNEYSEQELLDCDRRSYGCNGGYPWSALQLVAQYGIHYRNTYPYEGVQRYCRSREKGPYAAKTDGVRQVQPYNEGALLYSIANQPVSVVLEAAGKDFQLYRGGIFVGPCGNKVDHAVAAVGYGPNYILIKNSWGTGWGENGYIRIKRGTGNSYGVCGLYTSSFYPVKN
Method: (§1) A mixture of a test compound of the present invention, papain (0.015 units) and a citrate buffer solution (20 mM, pH=6.2,1 ml) containing EDTA (0.88 mg) was preincubated at 30° C. for 5 minutes and a substrate solution (1 ml) was added to start the reaction. The substrate was a 1% solution of casein in the citrate buffer. The reaction was performed at 30° C. for 20 minutes. The reaction was quenched by adding 6.5% trichloroacetic acid (3 ml) to the reaction solution. The amount of casein that had been hydrolyzed enzymatically in the trichloroacetic acid soluble fraction was measured by the Lowry-Folin method and the inhibitory activity of the test compound was determined by comparison with the control solution.
as §1, with “pH=6.2, 1” for “pH=6.2,1”

calpain I = molecular target: T2, calpain I (Homo sapiens, UniProt P07384); assay: Anti-calpain activity, calpain I (casein hydrolysis, Ross-Schatz method); type: biochemical
T2 sequence (P07384 1-714): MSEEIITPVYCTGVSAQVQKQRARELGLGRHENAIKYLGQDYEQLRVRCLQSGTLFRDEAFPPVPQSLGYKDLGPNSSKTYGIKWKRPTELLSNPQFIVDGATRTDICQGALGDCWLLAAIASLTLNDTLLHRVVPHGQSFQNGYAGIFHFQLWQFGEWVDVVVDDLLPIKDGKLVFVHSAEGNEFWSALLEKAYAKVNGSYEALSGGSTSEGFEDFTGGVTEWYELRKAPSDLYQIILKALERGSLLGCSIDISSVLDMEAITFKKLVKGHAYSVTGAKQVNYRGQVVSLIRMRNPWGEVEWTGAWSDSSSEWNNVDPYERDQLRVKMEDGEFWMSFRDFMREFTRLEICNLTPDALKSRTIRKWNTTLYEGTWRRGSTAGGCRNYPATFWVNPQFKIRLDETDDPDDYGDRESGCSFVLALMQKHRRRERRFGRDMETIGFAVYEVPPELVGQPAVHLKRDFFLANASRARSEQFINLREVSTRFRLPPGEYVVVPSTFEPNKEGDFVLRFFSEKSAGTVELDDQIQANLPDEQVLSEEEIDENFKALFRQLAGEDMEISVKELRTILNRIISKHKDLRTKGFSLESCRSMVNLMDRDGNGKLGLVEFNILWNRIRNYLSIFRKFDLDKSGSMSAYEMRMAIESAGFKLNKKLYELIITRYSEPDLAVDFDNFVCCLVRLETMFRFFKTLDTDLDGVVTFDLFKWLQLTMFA
T2 sequence (P04632 1-268 partner): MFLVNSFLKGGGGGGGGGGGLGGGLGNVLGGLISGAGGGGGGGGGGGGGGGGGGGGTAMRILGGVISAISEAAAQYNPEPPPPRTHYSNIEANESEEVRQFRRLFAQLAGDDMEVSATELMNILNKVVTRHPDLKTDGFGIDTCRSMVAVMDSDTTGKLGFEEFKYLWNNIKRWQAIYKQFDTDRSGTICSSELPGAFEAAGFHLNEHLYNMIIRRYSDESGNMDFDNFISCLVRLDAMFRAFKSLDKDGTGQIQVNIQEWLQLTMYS

calpain II = molecular target: T3, calpain II (Homo sapiens, UniProt P17655); assay: Anti-calpain activity, calpain II (casein hydrolysis, Ross-Schatz method); type: biochemical
T3 sequence (P17655 1-700): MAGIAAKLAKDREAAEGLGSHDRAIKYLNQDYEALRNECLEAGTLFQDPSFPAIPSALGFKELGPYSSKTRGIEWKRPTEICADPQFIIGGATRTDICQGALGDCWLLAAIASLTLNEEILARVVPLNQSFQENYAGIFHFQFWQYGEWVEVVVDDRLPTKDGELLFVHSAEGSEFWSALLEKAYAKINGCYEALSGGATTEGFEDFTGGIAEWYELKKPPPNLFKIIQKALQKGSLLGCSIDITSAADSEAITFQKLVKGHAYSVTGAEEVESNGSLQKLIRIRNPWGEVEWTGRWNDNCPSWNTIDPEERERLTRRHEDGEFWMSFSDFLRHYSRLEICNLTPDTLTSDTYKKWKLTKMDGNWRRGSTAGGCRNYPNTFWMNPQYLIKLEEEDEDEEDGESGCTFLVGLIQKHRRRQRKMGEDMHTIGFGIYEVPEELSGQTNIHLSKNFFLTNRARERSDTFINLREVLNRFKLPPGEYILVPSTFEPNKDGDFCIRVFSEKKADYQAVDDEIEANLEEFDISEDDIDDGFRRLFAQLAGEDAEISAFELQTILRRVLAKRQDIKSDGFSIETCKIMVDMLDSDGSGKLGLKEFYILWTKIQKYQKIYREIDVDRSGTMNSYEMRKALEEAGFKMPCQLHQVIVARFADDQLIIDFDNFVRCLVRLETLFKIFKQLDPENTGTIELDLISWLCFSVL
T3 sequence (P04632 1-268 partner): T2 sequence (P04632 1-268 partner)

cathepsin B = cathepsin B (Bos taurus, UniProt P07688); assay: Anti-cathepsin activity (cathepsin B, benzyloxycarbonyl-L-lysine-p-nitrophenyl ester substrate); type: biochemical, bovine
Method: A mixture of a test compound of the present invention and an acetate buffer solution (25 mM, pH=5.1, with 1 mM EDTA, 3.15 ml) containing a substrate (benzyloxycarbonyl-L-lysine-p-nitrophenyl ester, 0.114 mg) was preincubated at 30° C. for 1 minute. To the mixture, a solution (0.05 ml) of cathepsin B (derived from bovine spleen; product of Sigma; 0.05 units) in the acetate buffer was added to start the reaction. Immediately after the start of reaction, the change in absorbance at 326 nm was measured and the inhibitory activity of the test compound was determined by comparison with the control solution.

[1] = Table 5 (Example 29), pH 6.2, 30° C., 20 minutes, casein, read-out: Inhibitory activity toward papain, IC50
[2] = Table 6 (Example 29), pH 7.5, 30° C., 30 minutes, casein, read-out: Inhibitory activity toward calpain I, IC50
[3] = Table 7 (Example 29), pH 7.5, 30° C., 30 minutes, casein, read-out: Inhibitory activity toward calpain II, IC50
[4] = Table 8 (Example 29), pH 5.1, 30° C., from bovine spleen, read-out: Inhibitory activity toward cathepsin B, IC50

With `CCCC[C@@H](C=O)NC(=O)[C@H](CC(C)C)NC(=O)OCc1ccc(OC)cc1` [Example 7, N-(p-methoxybenzyloxycarbonyl)-L-leucyl-L-norleucinal] as the compound, how does the IC50 (papain; [1]) read?
Its IC50 is 250 nM.

And the IC50 (calpain I; [2])?
Its IC50 is 100 nM.

And the IC50 (calpain II; [3])?
The IC50 was 130 nM.

What about the IC50 (cathepsin B; [4]) of the same compound?
Its IC50 is 150 nM.

Which results are given for `CCCC[C@@H](C=O)NC(=O)[C@H](CC(C)C)NC(=O)OCc1ccc([N+](=O)[O-])cc1` [Example 8, N-(p-nitrobenzyloxycarbonyl)-L-leucyl-L-norleucinal]?
IC50 (papain; [1]): 31 nM; IC50 (calpain I; [2]): 92 nM; IC50 (calpain II; [3]): 130 nM; IC50 (cathepsin B; [4]): 99 nM

Which results are given for `CCCC[C@@H](C=O)NC(=O)[C@H](CC(C)C)NC(=O)OCc1ccccc1Cl` [Example 9, N-(o-chlorobenzyloxycarbonyl)-L-leucyl-L-norleucinal]?
IC50 (papain; [1]): 160 nM; IC50 (calpain I; [2]): 110 nM; IC50 (calpain II; [3]): 130 nM; IC50 (cathepsin B; [4]): 140 nM

`CCCC[C@@H](C=O)NC(=O)[C@H](CC(C)C)NP(=S)(c1ccccc1)c1ccccc1` [Example 14, N-diphenylphosphonothioyl-L-leucyl-L-norleucinal] was tested. Which IC50 (papain) did it give?
Its IC50 is 170 nM.

What about the IC50 (calpain I) of the same compound?
The IC50 was 90 nM.

And the IC50 (calpain II)?
Its IC50 is 120 nM.

And the IC50 (cathepsin B)?
The IC50 was 79 nM.
